The source of these data is ChEMBL document CHEMBL5335780, “The emerging role of mixed lineage kinase 3 (MLK3) and its potential as a target for neurodegenerative diseases therapies” (Eur J Med Chem, 2023).

Structures are written as SMILES.

Experiment [1] has as its target Mitogen-activated protein kinase kinase kinase 9 (Homo sapiens, UniProt P80192). Nature of the experiment: Inhibition of MLK1 (unknown origin).
The target in experiment [2] is Mitogen-activated protein kinase kinase kinase 11 (Homo sapiens, UniProt Q16584). Nature of the experiment: Inhibition of MLK3 (unknown origin).

Broadly, the IC50 is the concentration that inhibits the measured activity by half. High values mean weaker potency in that assay, low ones greater potency in that assay.

Chain of Mitogen-activated protein kinase kinase kinase 11 (Q16584 whole entry): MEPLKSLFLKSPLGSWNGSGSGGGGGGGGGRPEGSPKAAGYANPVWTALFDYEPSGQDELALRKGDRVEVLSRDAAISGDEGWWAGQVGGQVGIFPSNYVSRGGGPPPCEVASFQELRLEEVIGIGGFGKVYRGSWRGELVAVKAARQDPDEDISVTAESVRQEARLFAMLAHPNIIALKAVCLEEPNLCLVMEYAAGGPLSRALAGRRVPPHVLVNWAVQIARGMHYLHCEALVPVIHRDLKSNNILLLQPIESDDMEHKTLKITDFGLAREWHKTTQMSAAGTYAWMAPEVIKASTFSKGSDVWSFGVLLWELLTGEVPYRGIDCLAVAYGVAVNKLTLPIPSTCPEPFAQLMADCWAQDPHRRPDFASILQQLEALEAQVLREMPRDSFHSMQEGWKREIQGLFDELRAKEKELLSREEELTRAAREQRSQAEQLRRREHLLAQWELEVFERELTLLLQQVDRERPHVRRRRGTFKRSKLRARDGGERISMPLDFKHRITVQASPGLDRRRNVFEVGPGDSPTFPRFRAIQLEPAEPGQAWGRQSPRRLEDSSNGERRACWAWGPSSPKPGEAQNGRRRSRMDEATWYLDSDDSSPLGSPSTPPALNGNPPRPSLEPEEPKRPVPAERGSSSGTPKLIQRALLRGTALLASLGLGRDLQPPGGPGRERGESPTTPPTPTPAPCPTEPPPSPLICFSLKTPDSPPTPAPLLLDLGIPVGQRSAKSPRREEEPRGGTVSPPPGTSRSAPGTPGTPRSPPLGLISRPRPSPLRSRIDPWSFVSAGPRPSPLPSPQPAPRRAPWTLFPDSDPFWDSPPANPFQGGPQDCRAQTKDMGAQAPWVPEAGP
Chain of Mitogen-activated protein kinase kinase kinase 9 (P80192 whole entry): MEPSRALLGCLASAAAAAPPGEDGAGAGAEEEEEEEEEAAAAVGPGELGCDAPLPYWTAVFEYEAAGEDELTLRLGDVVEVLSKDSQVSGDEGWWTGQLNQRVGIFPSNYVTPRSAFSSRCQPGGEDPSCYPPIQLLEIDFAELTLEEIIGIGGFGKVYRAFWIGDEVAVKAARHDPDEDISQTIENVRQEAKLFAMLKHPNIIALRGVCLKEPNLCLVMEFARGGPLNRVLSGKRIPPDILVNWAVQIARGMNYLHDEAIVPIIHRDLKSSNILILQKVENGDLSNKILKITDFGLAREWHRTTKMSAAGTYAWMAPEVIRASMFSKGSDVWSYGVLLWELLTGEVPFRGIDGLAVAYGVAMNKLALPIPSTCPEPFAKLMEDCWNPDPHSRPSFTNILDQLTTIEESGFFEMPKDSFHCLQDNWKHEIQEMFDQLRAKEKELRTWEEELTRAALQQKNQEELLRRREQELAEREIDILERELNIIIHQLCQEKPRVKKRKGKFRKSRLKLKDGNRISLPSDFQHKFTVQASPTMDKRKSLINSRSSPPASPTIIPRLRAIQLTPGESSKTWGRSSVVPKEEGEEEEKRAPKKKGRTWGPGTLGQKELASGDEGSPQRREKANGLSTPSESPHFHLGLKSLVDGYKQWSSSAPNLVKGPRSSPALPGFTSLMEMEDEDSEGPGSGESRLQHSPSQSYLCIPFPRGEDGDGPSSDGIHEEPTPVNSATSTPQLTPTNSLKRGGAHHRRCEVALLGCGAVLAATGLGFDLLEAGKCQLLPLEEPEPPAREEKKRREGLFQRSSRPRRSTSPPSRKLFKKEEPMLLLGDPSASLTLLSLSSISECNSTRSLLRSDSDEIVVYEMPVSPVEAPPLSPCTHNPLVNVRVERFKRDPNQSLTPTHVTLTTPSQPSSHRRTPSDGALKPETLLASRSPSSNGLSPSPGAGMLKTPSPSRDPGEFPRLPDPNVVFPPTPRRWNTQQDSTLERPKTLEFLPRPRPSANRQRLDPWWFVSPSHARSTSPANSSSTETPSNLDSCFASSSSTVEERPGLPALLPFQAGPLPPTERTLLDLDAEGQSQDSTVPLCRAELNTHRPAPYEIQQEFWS

For `OCCN1CCN(Cc2ccc(-c3cnc4[nH]cc(-c5cccc(Cl)c5)c4c3)cc2)CC1`, the IC50 was 44.7 nM in experiment [1] and 23.7 nM in experiment [2].
